Measured values: the CheMixHub ionic liquid set

Assay: xn = mol fraction of the nth substance listed

CCCCCCCCCCCCCCCC[n+]1ccccc1.O=C([O-])C(O)c1ccccc1 + NCC(=O)NCC(=O)O + O
electrical conductivity [S/m], 101 kPa
Conditions | 293.15 K | 298.15 K | 303.15 K | 308.15 K | 313.15 K
x1 = 1.08e-06, x2 = 0 | 0.00061 | 0.00068 | 0.00076 | 0.00083 | 0.0009
x1 = 1.09e-06, x2 = 0.001799 | 0.00287 | 0.00346 | 0.00413 | 0.0049 | 0.0058
x1 = 1.27e-06, x2 = 0.0009002 | 0.00184 | 0.0022 | 0.0026 | 0.0031 | 0.0036
x1 = 1.98e-06, x2 = 0 | 0.001 | 0.0012 | 0.0013 | 0.0014 | 0.0016
x1 = 2.19e-06, x2 = 0.001799 | 0.00326 | 0.00391 | 0.0046 | 0.0054 | 0.0064
x1 = 2.36e-06, x2 = 0.0009002 | 0.00226 | 0.00268 | 0.0031 | 0.0036 | 0.0042
x1 = 2.88e-06, x2 = 0 | 0.00147 | 0.0016 | 0.0018 | 0.002 | 0.0022
x1 = 3.26e-06, x2 = 0.0009002 | 0.00264 | 0.0031 | 0.0036 | 0.0042 | 0.0048
x1 = 3.46e-06, x2 = 0.001799 | 0.00367 | 0.00438 | 0.0051 | 0.006 | 0.007
x1 = 3.96e-06, x2 = 0 | 0.0019 | 0.0022 | 0.0024 | 0.0026 | 0.0029
x1 = 4.17e-06, x2 = 0.0009002 | 0.00301 | 0.0035 | 0.004 | 0.0046 | 0.0053
x1 = 4.56e-06, x2 = 0.001799 | 0.00407 | 0.00482 | 0.0056 | 0.0066 | 0.0076
x1 = 4.69e-06, x2 = 0 | 0.0023 | 0.0026 | 0.0029 | 0.0031 | 0.0035
x1 = 5.44e-06, x2 = 0.0009002 | 0.00346 | 0.004 | 0.0046 | 0.0053 | 0.006
x1 = 5.47e-06, x2 = 0.001799 | 0.00441 | 0.00521 | 0.0061 | 0.007 | 0.0082
x1 = 5.95e-06, x2 = 0 | 0.00281 | 0.0032 | 0.0035 | 0.0038 | 0.0042
x1 = 6.89e-06, x2 = 0.0009002 | 0.00401 | 0.00464 | 0.0053 | 0.006 | 0.0069
x1 = 6.93e-06, x2 = 0.001799 | 0.00487 | 0.00571 | 0.0066 | 0.0077 | 0.0089
x1 = 7.21e-06, x2 = 0 | 0.00341 | 0.0038 | 0.0042 | 0.0046 | 0.0051
x1 = 8.34e-06, x2 = 0.0009002 | 0.00451 | 0.0052 | 0.0059 | 0.0068 | 0.0077
x1 = 8.38e-06, x2 = 0.001799 | 0.00536 | 0.00626 | 0.0072 | 0.0084 | 0.0097
x1 = 8.83e-06, x2 = 0 | 0.00406 | 0.0046 | 0.005 | 0.0055 | 0.006
x1 = 9.97e-06, x2 = 0.0009002 | 0.00504 | 0.00579 | 0.0066 | 0.0075 | 0.0085
x1 = 1.002e-05, x2 = 0.001799 | 0.00583 | 0.0068 | 0.0078 | 0.009 | 0.0104
x1 = 1.045e-05, x2 = 0 | 0.00469 | 0.0053 | 0.0058 | 0.0065 | 0.0071
x1 = 1.142e-05, x2 = 0.0009002 | 0.00547 | 0.00629 | 0.0071 | 0.0081 | 0.0092
x1 = 1.166e-05, x2 = 0.001799 | 0.0062 | 0.00723 | 0.0083 | 0.0096 | 0.011
x1 = 1.207e-05, x2 = 0 | 0.00516 | 0.0058 | 0.0064 | 0.0071 | 0.0079
x1 = 1.287e-05, x2 = 0.0009002 | 0.00582 | 0.00669 | 0.0076 | 0.0086 | 0.0098
x1 = 1.312e-05, x2 = 0.001799 | 0.0066 | 0.00763 | 0.0088 | 0.0101 | 0.0117
x1 = 1.351e-05, x2 = 0 | 0.00562 | 0.00631 | 0.007 | 0.0077 | 0.0085
x1 = 1.414e-05, x2 = 0.0009002 | 0.00617 | 0.00708 | 0.008 | 0.0091 | 0.0103
x1 = 1.476e-05, x2 = 0.001799 | 0.00697 | 0.0081 | 0.0093 | 0.0107 | 0.0122
x1 = 1.478e-05, x2 = 0 | 0.00603 | 0.0068 | 0.0075 | 0.0083 | 0.0092
x1 = 1.54e-05, x2 = 0.0009002 | 0.00651 | 0.0075 | 0.0084 | 0.0096 | 0.0108
x1 = 1.622e-05, x2 = 0 | 0.00644 | 0.0072 | 0.008 | 0.0089 | 0.0098
x1 = 1.622e-05, x2 = 0.001799 | 0.00735 | 0.0084 | 0.0097 | 0.0112 | 0.0128
x1 = 1.667e-05, x2 = 0.0009002 | 0.00687 | 0.0079 | 0.0089 | 0.0101 | 0.0114
x1 = 1.75e-05, x2 = 0.001799 | 0.00771 | 0.0088 | 0.0102 | 0.0117 | 0.0133
x1 = 1.766e-05, x2 = 0 | 0.00687 | 0.0077 | 0.0085 | 0.0094 | 0.0104

CCCCCCCCC(=O)O + CCCCCCCC[N+](CCCCCCCC)(CCCCCCCC)CCCCCCCC.[Br-]
Conditions | electrical conductivity [S/m]
298.1 K, 100 kPa, x2 = 0.333 | 4.5e-06

CCCCCCCCCCCC[N+]1(C)CCCC1.O=C([O-])c1ccccc1O + O
100 kPa
Conditions | electrical conductivity [S/m]
298.15 K, x1 = 3.592e-05 | 0.00892
298.15 K, x1 = 3.961e-05 | 0.00933
298.15 K, x1 = 4.883e-05 | 0.0111
308.15 K, x1 = 4.883e-05 | 0.0151
318.15 K, x1 = 3.592e-05 | 0.0144
318.15 K, x1 = 5.39e-05 | 0.02
318.15 K, x1 = 5.759e-05 | 0.0215
328.15 K, x1 = 5.39e-05 | 0.0254
328.15 K, x1 = 5.759e-05 | 0.0262

CC(=O)[O-].CCCC[N+](CCCC)(CCCC)CCCC + CC(=O)O + O
303.15 K, 100 kPa
Conditions | viscosity [mPa·s]
x2 = 0, x3 = 0.0263 | 680
x2 = 0.0971, x3 = 0.0291 | 460
x2 = 0.194, x3 = 0.0301 | 297
x2 = 0.3213, x3 = 0.0263 | 169
x2 = 0.4883, x3 = 0.0234 | 83
x2 = 0.6588, x3 = 0.0167 | 41
x2 = 0.7897, x3 = 0.0128 | 25
x2 = 0.8911, x3 = 0.0099 | 19
